In patent publication US20190330224A1, “ACC INHIBITORS AND USES THEREOF” (Gilead Apollo, LLC, priority 2015, published 2019):
≈ marks a conversion by molar mass, not a printed value.

How the values were obtained:
Diplodia maydis (Dm) = assay: Growth inhibition assay of fungal pathogens, Dm; type: cell-based; conditions: Stenocarpella maydis; 48 hours; read-out: Concentration at 90% Inhibition, Dm
Outline: (§1)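 Spores in 17% V8 liquid medium were exposed to compound at final 50, 10 and 2 ppm or 2, 0.4 and 0.08 ppm with 2% DMSO. After 48 h, OD600 (blank-subtracted) and visual ratings were compared with the 2% DMSO control to give percent growth inhibition.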

[1] = tested on: C. parapsilosis ATCC 22019; assay: Anti-Fungal Activity Assay (broth microtiter MIC), C. parapsilosis; type: cell-based, Candida parapsilosis; conditions: Lodderomyces parapsilosis, ATCC22019, 48 h, 3 replicates; MIC recorded at 48 h; read-out: MIC C. parapsilosis ATCC 22019
Outline: (§2)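 Susceptibility testing used direct colony suspensions in RPMI 1640+MOPS from Sabouraud dextrose agar grown at 35° C. Endpoints were visual MICs at 48 h under CLSI M27-A3 microtiter conditions, plus a 24 h reading for soraphen.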

[2] = tested on: Blumeria graminis f sp. hordei; assay: Foliar protection test, barley powdery mildew control; type: in vivo, Blumeria graminis f sp. hordei on Hordeum vulgare cv. Perry; conditions: 168 h, compound concentration 50 ppm, foliar spray, evaluated 7 days after inoculation, read-out: Barley Powdery Mildew Control at 50 ppm
Outline: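 Barley cv. Perry at first true leaf (6 days) sprayed to wetness on both leaf sides with compound in 5% acetone/0.005% Tween 80, typically at 200, 100, 50, 10 or 2 ppm. Inoculated 24 h later by shaking spores from colonized plants; kept at 20-22 °C, 70% RH. Mildew colonization scored 7 days later as percent control.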

[3] = tested on: Phytophthora capsici (Pc); assay: Growth inhibition assay of fungal pathogens, Pc; type: cell-based; conditions: 48 hours, read-out: Concentration at 90% Inhibition, Pc
Outline: as §1

C. krusei ATCC 6258 = assay: Anti-Fungal Activity Assay (broth microtiter MIC), C. krusei; type: cell-based, Candida krusei; conditions: Pichia kudriavzevii, ATCC6258, 48 h, 3 replicates; MIC recorded at 48 h; read-out: MIC C. krusei ATCC 6258
Outline: as §2

Rhizoctonia solani (Rs) = assay: Growth inhibition assay of fungal pathogens, Rs; type: cell-based; conditions: 48 hours, read-out: Concentration at 90% Inhibition, Rs
[4] = tested on: Fusarium moniliforme (Fm); assay: Growth inhibition assay of fungal pathogens, Fm; type: cell-based; conditions: Fusarium verticillioides; 48 hours; read-out: Concentration at 90% Inhibition, Fm
Outline: as §1

C. albicans ATCC 90028 = assay: Anti-Fungal Activity Assay (broth microtiter MIC), C. albicans; type: cell-based, Candida albicans; conditions: Candida albicans, ATCC90028, 48 h, 3 replicates; MIC recorded at 48 h; read-out: MIC C. albicans ATCC 90028
Outline: as §2

Human ACC2 = Human ACC2 (Homo sapiens, UniProt O00763); assay: In vitro ACC2 inhibition assay (ADP-Glo), human ACC2; type: biochemical; conditions: 5 nM ACC2, 20 μM ATP, 20 μM acetyl-CoA
Septoria tritici (St) = assay: Growth inhibition assay of fungal pathogens, St; type: cell-based; conditions: Zymoseptoria tritici; 48 hours; read-out: Concentration at 90% Inhibition, St
Outline: as §1

Fungal ACC2 = Fungal ACC2 (UniProt Q00955); conditions: read-out: Fungal ACC2 (IC50, in vitro ACC2 inhibition)
[5] = tested on: Fusarium virguliforme (Fv); assay: Growth inhibition assay of fungal pathogens, Fv; type: cell-based; conditions: 48 hours, read-out: Concentration at 90% Inhibition, Fv
Outline: as §1

[6] = tested on: Collectotrichum graminicola (Cg); assay: Growth inhibition assay of fungal pathogens, Cg; type: cell-based; conditions: 48 hours; read-out: Concentration at 90% Inhibition, Cg
Outline: as §1

Botrtyis cinerea (Bc) = assay: Growth inhibition assay of fungal pathogens, Bc; type: cell-based; conditions: 48 hours; read-out: Concentration at 90% Inhibition, Bc
Outline: as §1

[7] = compound concentration 10 ppm, foliar spray, evaluated 7 days after inoculation

Chain of Fungal ACC2 (Q00955 whole entry): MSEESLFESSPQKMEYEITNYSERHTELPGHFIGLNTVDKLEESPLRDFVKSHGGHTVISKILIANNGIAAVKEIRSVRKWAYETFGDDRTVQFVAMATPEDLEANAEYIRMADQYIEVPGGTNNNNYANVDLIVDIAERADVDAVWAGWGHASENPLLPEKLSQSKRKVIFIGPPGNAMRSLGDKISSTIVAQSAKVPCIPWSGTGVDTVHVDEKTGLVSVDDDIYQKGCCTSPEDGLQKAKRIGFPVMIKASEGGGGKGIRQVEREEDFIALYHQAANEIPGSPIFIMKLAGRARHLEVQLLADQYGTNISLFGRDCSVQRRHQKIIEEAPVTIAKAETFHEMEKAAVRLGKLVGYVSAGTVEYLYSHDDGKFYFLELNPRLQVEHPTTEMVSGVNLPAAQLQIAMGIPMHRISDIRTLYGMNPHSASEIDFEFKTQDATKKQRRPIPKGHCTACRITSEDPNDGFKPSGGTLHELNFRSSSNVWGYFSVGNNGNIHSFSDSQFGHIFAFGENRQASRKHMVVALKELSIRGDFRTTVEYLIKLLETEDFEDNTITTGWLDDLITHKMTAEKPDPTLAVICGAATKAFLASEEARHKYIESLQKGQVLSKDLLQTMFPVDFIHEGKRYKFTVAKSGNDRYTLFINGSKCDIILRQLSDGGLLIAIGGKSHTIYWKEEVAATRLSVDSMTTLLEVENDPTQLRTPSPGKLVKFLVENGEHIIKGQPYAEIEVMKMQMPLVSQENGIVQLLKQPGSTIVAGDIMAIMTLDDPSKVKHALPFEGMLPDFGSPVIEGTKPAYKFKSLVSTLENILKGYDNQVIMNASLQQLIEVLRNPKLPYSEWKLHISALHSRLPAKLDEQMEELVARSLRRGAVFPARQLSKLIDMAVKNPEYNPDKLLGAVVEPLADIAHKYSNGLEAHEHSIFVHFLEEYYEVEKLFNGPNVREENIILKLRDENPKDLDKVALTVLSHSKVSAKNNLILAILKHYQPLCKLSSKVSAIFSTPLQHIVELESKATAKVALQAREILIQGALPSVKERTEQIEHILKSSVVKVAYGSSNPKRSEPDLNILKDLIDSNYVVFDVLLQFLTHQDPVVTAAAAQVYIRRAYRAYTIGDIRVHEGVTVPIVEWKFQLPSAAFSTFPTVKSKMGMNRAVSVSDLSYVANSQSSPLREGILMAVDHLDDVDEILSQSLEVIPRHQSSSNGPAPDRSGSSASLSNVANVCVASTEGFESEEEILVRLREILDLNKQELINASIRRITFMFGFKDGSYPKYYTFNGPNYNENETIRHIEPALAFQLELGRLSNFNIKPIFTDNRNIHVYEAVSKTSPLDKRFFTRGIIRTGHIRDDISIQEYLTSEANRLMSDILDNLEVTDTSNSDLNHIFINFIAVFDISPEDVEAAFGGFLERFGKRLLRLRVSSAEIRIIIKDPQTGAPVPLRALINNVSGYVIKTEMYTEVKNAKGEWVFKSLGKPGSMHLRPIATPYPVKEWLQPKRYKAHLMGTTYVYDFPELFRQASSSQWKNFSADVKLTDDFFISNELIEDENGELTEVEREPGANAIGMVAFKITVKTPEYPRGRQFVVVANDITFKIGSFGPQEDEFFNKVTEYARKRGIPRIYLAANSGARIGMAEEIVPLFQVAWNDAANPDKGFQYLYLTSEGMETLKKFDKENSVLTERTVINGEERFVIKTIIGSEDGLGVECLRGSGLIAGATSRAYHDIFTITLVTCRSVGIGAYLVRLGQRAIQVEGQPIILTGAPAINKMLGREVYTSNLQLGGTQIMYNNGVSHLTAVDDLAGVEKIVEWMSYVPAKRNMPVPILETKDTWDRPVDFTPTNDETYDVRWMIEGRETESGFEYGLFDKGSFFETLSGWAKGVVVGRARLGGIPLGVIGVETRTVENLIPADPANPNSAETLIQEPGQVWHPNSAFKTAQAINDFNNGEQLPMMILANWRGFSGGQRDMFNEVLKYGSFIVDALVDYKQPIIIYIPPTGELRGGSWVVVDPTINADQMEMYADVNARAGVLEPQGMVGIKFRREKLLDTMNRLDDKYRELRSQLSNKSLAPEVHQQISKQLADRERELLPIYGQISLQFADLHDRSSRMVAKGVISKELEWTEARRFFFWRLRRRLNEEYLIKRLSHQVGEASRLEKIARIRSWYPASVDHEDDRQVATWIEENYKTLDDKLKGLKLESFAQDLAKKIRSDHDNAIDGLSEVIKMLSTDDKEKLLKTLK
Chain of Human ACC2 (O00763 whole entry): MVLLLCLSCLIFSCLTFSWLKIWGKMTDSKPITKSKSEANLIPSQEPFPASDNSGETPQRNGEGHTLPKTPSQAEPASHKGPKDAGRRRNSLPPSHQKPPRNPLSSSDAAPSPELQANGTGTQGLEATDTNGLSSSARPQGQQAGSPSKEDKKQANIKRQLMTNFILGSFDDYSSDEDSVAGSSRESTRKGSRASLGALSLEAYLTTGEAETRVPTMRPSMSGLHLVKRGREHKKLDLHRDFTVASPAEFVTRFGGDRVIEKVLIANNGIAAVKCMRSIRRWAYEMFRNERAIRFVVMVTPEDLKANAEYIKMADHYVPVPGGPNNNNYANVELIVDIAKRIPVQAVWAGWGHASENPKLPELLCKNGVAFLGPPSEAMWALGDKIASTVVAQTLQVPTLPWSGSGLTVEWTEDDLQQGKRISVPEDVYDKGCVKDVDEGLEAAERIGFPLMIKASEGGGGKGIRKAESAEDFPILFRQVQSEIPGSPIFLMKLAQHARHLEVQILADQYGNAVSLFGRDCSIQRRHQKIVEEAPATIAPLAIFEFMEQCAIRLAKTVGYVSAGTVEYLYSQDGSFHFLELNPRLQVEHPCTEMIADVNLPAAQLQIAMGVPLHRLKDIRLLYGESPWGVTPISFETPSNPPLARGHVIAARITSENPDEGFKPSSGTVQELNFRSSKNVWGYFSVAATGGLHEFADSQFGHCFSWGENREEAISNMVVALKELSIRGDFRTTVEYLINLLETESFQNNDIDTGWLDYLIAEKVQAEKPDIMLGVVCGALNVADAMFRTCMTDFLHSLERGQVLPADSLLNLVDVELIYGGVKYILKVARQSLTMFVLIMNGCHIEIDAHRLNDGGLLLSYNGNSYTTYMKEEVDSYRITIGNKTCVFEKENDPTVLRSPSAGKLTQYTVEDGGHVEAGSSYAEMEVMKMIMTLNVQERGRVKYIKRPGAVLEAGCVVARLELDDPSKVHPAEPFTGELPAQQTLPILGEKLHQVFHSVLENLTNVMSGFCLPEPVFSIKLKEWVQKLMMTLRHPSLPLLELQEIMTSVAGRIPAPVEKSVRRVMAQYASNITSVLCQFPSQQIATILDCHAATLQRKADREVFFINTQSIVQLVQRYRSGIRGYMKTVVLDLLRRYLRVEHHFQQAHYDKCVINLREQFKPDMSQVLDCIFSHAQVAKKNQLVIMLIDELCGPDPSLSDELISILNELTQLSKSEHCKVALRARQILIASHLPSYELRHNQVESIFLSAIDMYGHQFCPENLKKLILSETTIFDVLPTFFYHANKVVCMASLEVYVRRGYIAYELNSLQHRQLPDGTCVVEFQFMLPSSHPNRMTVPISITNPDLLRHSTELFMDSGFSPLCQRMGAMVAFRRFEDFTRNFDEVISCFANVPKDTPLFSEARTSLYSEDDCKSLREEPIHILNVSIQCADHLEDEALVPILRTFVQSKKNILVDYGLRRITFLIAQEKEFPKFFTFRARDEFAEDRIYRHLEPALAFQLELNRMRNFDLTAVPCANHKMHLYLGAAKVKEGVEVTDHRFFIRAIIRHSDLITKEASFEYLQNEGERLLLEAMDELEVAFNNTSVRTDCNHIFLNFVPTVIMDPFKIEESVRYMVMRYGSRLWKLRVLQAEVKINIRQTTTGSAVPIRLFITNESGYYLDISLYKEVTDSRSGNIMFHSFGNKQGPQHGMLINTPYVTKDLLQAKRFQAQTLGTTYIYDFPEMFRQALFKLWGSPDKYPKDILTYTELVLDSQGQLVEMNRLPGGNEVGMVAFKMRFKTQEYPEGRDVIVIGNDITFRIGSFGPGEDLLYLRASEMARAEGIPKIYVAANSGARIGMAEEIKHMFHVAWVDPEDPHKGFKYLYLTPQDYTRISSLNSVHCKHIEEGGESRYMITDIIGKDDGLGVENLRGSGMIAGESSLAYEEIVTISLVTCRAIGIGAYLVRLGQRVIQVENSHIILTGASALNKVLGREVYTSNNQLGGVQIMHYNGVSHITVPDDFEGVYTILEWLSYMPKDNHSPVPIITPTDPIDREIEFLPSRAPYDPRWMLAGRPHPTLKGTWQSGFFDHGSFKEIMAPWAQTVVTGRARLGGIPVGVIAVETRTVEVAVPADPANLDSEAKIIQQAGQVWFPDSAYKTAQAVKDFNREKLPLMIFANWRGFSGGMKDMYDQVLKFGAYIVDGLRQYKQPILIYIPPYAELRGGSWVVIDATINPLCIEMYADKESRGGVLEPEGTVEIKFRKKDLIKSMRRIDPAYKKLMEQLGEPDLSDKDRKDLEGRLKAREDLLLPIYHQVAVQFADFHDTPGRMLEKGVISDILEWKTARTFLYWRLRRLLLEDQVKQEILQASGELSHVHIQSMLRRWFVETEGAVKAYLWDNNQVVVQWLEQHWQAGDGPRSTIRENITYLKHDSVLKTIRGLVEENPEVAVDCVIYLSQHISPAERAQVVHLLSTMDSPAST

| SMILES | IC90 (Diplodia maydis (Dm)) [µg/mL] | MIC [1] [µg/mL] | pest or weed control at 50 ppm [2] [%] | IC90 [3] [µg/mL] | MIC (C. krusei ATCC 6258) [µg/mL] | IC90 (Rhizoctonia solani (Rs)) [µg/mL] | IC90 [4] [µg/mL] | MIC (C. albicans ATCC 90028) [µg/mL] | IC50 (Human ACC2) [nM] | IC90 (Septoria tritici (St)) [µg/mL] | IC50 (Fungal ACC2) [nM] | IC90 [5] [µg/mL] | IC90 [6] [µg/mL] | IC90 (Botrtyis cinerea (Bc)) [µg/mL] | Barley Powdery Mildew Control at 10 ppm [7] |
| --- | --- | --- | --- | --- | --- | --- | --- | --- | --- | --- | --- | --- | --- | --- | --- |
| COc1ccc(F)cc1[C@H](Cn1c(=O)n([C@@H]2CCN(C)C2=O)c(=O)c2c(C)c(-n3nccn3)sc21)OCCO [Compound I-83, 1-((R)-2-(5-fluoro-2-methoxyphenyl)-2-(2-hydroxy-ethoxy)ethyl)-5-methyl-3-((R)-1-methyl-2-oxopyrrolidin-3-yl)-6-(2H-1,2,3-triazol-2-yl)thieno[2,3-d]pyrimidine-2,4(1H,3H)-dione] | 10 (≈ 17.9 µM) | 2.1 to 4 (≈ 3.76 to 7.16 µM) | 70 to 84 | > 50 | 2.1 to 4 (≈ 3.76 to 7.16 µM) | 2 (≈ 3.58 µM) | 2 (≈ 3.58 µM) | 2.1 to 4 (≈ 3.76 to 7.16 µM) | 2 to 10 | > 50 | 0.7 to 2 | 10 (≈ 17.9 µM) | 2 (≈ 3.58 µM) | 2 (≈ 3.58 µM) | D (provided a compound having <25% control of barley powdery mildew) |
| COCCO[C@@H](Cn1c(=O)n([C@H]2CCCN(C)C2=O)c(=O)c2c(C)c(-n3nccn3)sc21)c1cc(F)ccc1OC [Compound I-31, 1-((R)-2-(5-fluoro-2-methoxyphenyl)-2-(2-methoxy-ethoxy)ethyl)-5-methyl-3-((S)-1-methyl-2-oxopiperidin-3-yl)-6-(2H-1,2,3-triazol-2-yl)thieno[2,3-d]pyrimidine-2,4(1H,3H)-dione] | > 50 | 2.1 to 4 (≈ 3.58 to 6.82 µM) | 70 to 84 | > 50 | 2.1 to 4 (≈ 3.58 to 6.82 µM) | > 50 | 2 (≈ 3.41 µM) | 2.1 to 4 (≈ 3.58 to 6.82 µM) | 10 to 100 | > 50 | 0.7 to 2 | 2 (≈ 3.41 µM) | > 50 | 10 (≈ 17 µM) | B (provided a compound having from 50 to 69% control of barley powdery mildew) |
| COCCO[C@@H](Cn1c(=O)n([C@@H]2CCCNC2=O)c(=O)c2c(C)c(-n3nccn3)sc21)c1cc(F)ccc1OC [Compound I-30, 1-((R)-2-(5-fluoro-2-methoxyphenyl)-2-(2-methoxy-ethoxy)ethyl)-5-methyl-3-((R)-2-oxopiperidin-3-yl)-6-(2H-1,2,3-triazol-2-yl)thieno[2,3-d]pyrimidine-2,4(1H,3H)-dione] | > 50 | 2.1 to 4 (≈ 3.67 to 6.99 µM) | 50 to 69 | > 50 | 2.1 to 4 (≈ 3.67 to 6.99 µM) | > 50 | > 50 | 2.1 to 4 (≈ 3.67 to 6.99 µM) | 10 to 100 | > 50 | 0.7 to 2 | > 50 | > 50 | 10 (≈ 17.5 µM) | D (provided a compound having <25% control of barley powdery mildew) |
| COc1ccc(F)cc1[C@H](Cn1c(=O)n([C@H]2CCNC2=O)c(=O)c2c(C)c(-n3nccn3)sc21)OCCC#N [Compound I-106, 3-((R)-1-(5-fluoro-2-methoxyphenyl)-2-(5-methyl-2,4-dioxo-3-((S)-2-oxopyrrolidin-3-yl)-6-(2H-1,2,3-triazol-2-yl)-3,4-dihydrothieno[2,3-d]pyrimidin-1(2H)-yl)ethoxy)propanenitrile] | > 50 | 2.1 to 4 (≈ 3.79 to 7.23 µM) | 25 to 49 | > 50 | 2.1 to 4 (≈ 3.79 to 7.23 µM) | 2 (≈ 3.61 µM) | 2 (≈ 3.61 µM) | 2.1 to 4 (≈ 3.79 to 7.23 µM) | 10 to 100 | > 50 | 0.7 to 2 | 10 (≈ 18.1 µM) | > 50 | 2 (≈ 3.61 µM) | D (provided a compound having <25% control of barley powdery mildew) |
| COc1ccc(F)cc1[C@H](Cn1c(=O)n([C@H]2CCCNC2=O)c(=O)c2c(C)c(-n3nccn3)sc21)OCCC#N [Compound I-110, 3-((R)-1-(5-fluoro-2-methoxyphenyl)-2-(5-methyl-2,4-dioxo-3-((S)-2-oxopiperidin-3-yl)-6-(2H-1,2,3-triazol-2-yl)-3,4-dihydrothieno[2,3-d]pyrimidin-1 (2H)-yl)ethoxy)propanenitrile] | > 50 | 2.1 to 4 (≈ 3.7 to 7.05 µM) | 50 to 69 | > 50 | 2.1 to 4 (≈ 3.7 to 7.05 µM) | 2 (≈ 3.52 µM) | 2 (≈ 3.52 µM) | 2.1 to 4 (≈ 3.7 to 7.05 µM) | 10 to 100 | > 50 | 0.7 to 2 | 10 (≈ 17.6 µM) | 10 (≈ 17.6 µM) | 2 (≈ 3.52 µM) | D (provided a compound having <25% control of barley powdery mildew) |
| COc1ccc(F)cc1[C@H](Cn1c(=O)n([C@@H]2CCCN(C)C2=O)c(=O)c2c(C)c(-n3nccn3)sc21)OCCO [Compound I-73, 1-((R)-2-(5-fluoro-2-methoxyphenyl)-2-(2-hydroxy-ethoxy)ethyl)-5-methyl-3-((R)-1-methyl-2-oxopiperidin-3-yl)-6-(2H-1,2,3-triazol-2-yl)thieno[2,3-d]pyrimidine-2,4(1H,3H)-dione] | 2 (≈ 3.49 µM) | 2.1 to 4 (≈ 3.67 to 6.99 µM) | 50 to 69 | > 50 | 2.1 to 4 (≈ 3.67 to 6.99 µM) | 2 (≈ 3.49 µM) | 2 (≈ 3.49 µM) | 2.1 to 4 (≈ 3.67 to 6.99 µM) | 10 to 100 | > 50 | 0.7 to 2 | 2 (≈ 3.49 µM) | 2 (≈ 3.49 µM) | 10 (≈ 17.5 µM) | D (provided a compound having <25% control of barley powdery mildew) |
| COc1ccc(F)cc1[C@H](Cn1c(=O)n([C@H]2CCN(C)C2=O)c(=O)c2c(C)c(-n3nccn3)sc21)OCCO [Compound I-82, 1-((R)-2-(5-fluoro-2-methoxyphenyl)-2-(2-hydroxy-ethoxy)ethyl)-5-methyl-3-((S)-1-methyl-2-oxopyrrolidin-3-yl)-6-(2H-1,2,3-triazol-2-yl)thieno[2,3-d]pyrimidine-2,4(1H,3H)-dione] | 10 (≈ 17.9 µM) | 2.1 to 4 (≈ 3.76 to 7.16 µM) | 25 to 49 | > 50 | 2.1 to 4 (≈ 3.76 to 7.16 µM) | 2 (≈ 3.58 µM) | 2 (≈ 3.58 µM) | 2.1 to 4 (≈ 3.76 to 7.16 µM) | 2 to 10 | > 50 | 0.7 to 2 | 2 (≈ 3.58 µM) | 10 (≈ 17.9 µM) | 2 (≈ 3.58 µM) | D (provided a compound having <25% control of barley powdery mildew) |
